In patent US20150025120A1, “PYRAZOLE-ALCOHOL COMPOUNDS AND PHARMACEUTICAL USE THEREOF” (JAPAN TOBACCO INC., priority 2013, published 2015):

What was measured:
human PDHK2 (hPDHK2) = target: T1, human PDHK2 (hPDHK2) (Homo sapiens, UniProt Q15119); test: Inhibitory action of PDHK2 activity in vitro (residual PDH activity after kinase reaction); format: biochemical
T1 construct: made in house; host or cells: Escherichia coli BL21(DE3), pET17b
Description: The inhibitory action of PDHK activity was assessed indirectly by measuring the residual PDH activity after kinase reaction in the presence of a test compound.
In the case of human PDHK2 (hPDHK2, Genbank Accession No. BC040478.1), modified hPDHK2 cDNA wherein FLAG-Tag sequence was added to the N terminus of hPDHK2 cDNA clone (pReceiver-M01/PDK2-GeneCopoeia) was prepared by PCR and cloned into a vector (pET17b-Novagen). The recombinant construct was transformed into Escherichia coli (DH5α-TOYOBO). The recombinant clones were identified, and plasmid DNA was isolated and subjected to the DNA sequence analysis. One clone which had the expected nucleic acid sequence was selected for expression work.
For expression of hPDHK2 activity, Escherichia coli strain BL21(DE3) cells (Novagen) were transformed with the pET17b vector containing modified hPDHK2 cDNA. The Escherichia coli were grown to an optical density 0.6 ([…]) at 30° C. Protein expression was induced by the addition of 500 μmol/L isopropyl-β-thiogalactopyranoside. The Escherichia coli were cultured at 30° C. for 5 hr and harvested by centrifugation. Resuspension of the Escherichia coli paste was disrupted by a microfluidizer. FLAG-Tagged protein was purified using FLAG affinity gel. The gel was washed with 20 mmol/L HEPES-NaOH, 500 mmol/L sodium chloride, 1% ethylene glycol, and 0.1% Pluronic F-68 (pH 8.0), and the binding protein was eluted with 20 mmol/L HEPES-NaOH, 100 μg/mL FLAG peptide, 500 mmol/L sodium chloride, 1% ethylene glycol, and 0.1% Pluronic F-68 (pH 8.0). The eluted fractions containing FLAG-Tagged protein were pooled, dialyzed against 20 mmol/L HEPES-NaOH, 150 mmol/L sodium chloride, 0.5 mmol/L EDTA, 1% ethylene glycol, and 0.1% Pluronic F-68 (pH 8.0), and preserved at −80° C.
0.05 U/mL PDH and 0.8 μg/mL hPDHK2 were mixed in a buffer (50 mmol/L 3-morpholinopropanesulfonic acid (pH 7.0), 20 mmol/L dipotassium hydrogen phosphate, 60 mmol/L potassium chloride, 2 mmol/L magnesium chloride, 0.4 mmol/L EDTA, and 0.2% Pluronic F-68, 2 mmol/L dithiothreitol), and the mixture was incubated at 4° C. overnight to obtain a PDH/hPDHK2 complex. The test compounds were diluted with DMSO. […] DMSO (1.5 μL) was added to control wells instead of the test compound. […] The mixture was incubated at room temperature for 90 min, and the residual PDH activity was measured. The absorbance at 340 nm before and after PDH reaction was measured using a microplate reader to detect NADH produced by the PDH reaction. The hPDHK2 inhibition rate (%) of the test compound was calculated from the formula [{(PDH activity of test compound−PDH activity of control)/PDH activity of blank−PDH activity of control)}×100].

tissue PDH activity = test: Ex vivo PDH activation assay (liver and epididymal adipose tissue after oral administration); format: in vivo, Sprague-Dawley rats; settings: 3 mg/kg, rat, mean ± standard deviation
Description: The action of test compound on tissue PDH activity was evaluated. NADH production was detected via p-iodonitrotetrazolium violet (INT)-coupled system to measure PDH activity.
Normal male Sprague-Dawley rats were randomly allocated to the vehicle group and the test compound groups. The vehicle (0.5% aqueous methylcellulose solution, 5 mL/kg) or the test compound was orally administered to the rats. At 5 or 20 hr after administration, the rats were anesthetized with an intraperitoneal injection of sodium pentobarbital (60 mg/kg), and liver slices and epididymal adipose tissues were collected.
(§1) To the liver slices were rapidly added 9 volumes of ice-cold homogenization buffer (0.25 mol/L sucrose, 5 mmol/L tris(hydroxymethyl)aminomethane hydrochloride (pH 7.5), 2 mmol/L EDTA), and the mixtures were homogenized using a Polytron homogenizer. The homogenates were centrifuged at 600×g, 4° C. for 10 min to obtain the supernatant. The supernatants (1 mL) were centrifuged at 16,000×g, 4° C. for 10 min to collect the precipitates. The precipitates were washed by resuspension in the homogenization buffer (1 mL) and centrifuged in the same manner. The precipitates were frozen with liquid nitrogen and stored at −80° C. as the liver mitochondrial fraction.
as §1, with “adipose tissues” for “liver slices”, “3” for “9”, “of an” for “of”, “buffer,” for “buffer (0.25 mol/L sucrose, 5 mmol/L tris(hydroxymethyl)aminomethane hydrochloride (pH 7.5), 2 mmol/L EDTA),”, “supernatants” for “supernatants (1 mL)”, “adipose tissue” for “liver”
The mitochondrial fractions were thawed and suspended with the sample buffer (0.25 mol/L sucrose, 20 mmol/L tris(hydroxymethyl)aminomethane hydrochloride (pH 7.5), 50 mmol/L potassium chloride, and 1 mL/L 4-(1,1,3,3-tetramethylbutyl)phenyl-polyethylene glycol (Triton X-100)). Active PDH activity (PDHa activity) and total PDH activity (PDHt activity) were measured to evaluate the PDH activity. For the measurement of the PDHt activity, equal amounts of the mitochondrial suspension and the activation buffer (0.25 mol/L sucrose, 20 mmol/L tris(hydroxymethyl)aminomethane hydrochloride (pH 7.5), 50 mmol/L potassium chloride, 1 mL/L Triton X-100, 4 mmol/L calcium chloride, 40 mmol/L magnesium chloride, 10 mmol/L sodium dichloroacetate) were mixed, and the mixtures were incubated at 37° C. for 10 min. Forty microliters of the mitochondrial suspensions diluted with a sample buffer were added to a 96-well microplate for activity measurement and blank measurement. Then 180 μL of the reaction mixture (0.056 mmol/L potassium phosphate buffer (pH 7.5), 5.6 mmol/L DL-carnitine, 2.8 mmol/L NAD, 0.22 mmol/L thiamin pyrophosphate, 0.11 mmol/L Coenzyme A, 1.1 mL/L Triton X-100, 1.1 mmol/L magnesium chloride, 1.1 g/L bovine serum albumin, 0.67 mmol/L INT, 7.2 μmol/L phenazine methosulfate, 28 mmol/L sodium oxamate) was added to each well, and then 20 μL of 50 mmol/L sodium pyruvate for activity measurement or water for blank measurement were added. The mixtures were incubated at room temperature under shading. The absorbances at 500-750 nm, which were attributable to reduction of INT, the final electron acceptor, were measured using a microplate reader over time and the changes in the absorbance were calculated. The PDH activity was calculated by subtraction of the change in absorbance of the blank well from that of the activity measurement well. The percentage of the PDHa activity to the PDHt activity was calculated and taken as an index of the PDH activation.

[1] = Metabolic stability test in liver microsome (human); format: in vitro ADME; settings: 5 μM test compound
Description: Human liver microsome (manufactured by Xenotech, H0620, final concentration (after dilution), 0.2 mg protein/mL) was suspended in 100 mM potassium phosphate buffer (pH 7.4, containing β-nicotinamide adenine dinucleotide phosphate: 1.3 mM, D-glucose-6-phosphate: 3.3 mM, magnesium chloride: 3.3 mM, glucose-6-phosphate dehydrogenase: 0.45 U/mL), and further mixed with a test compound dissolved in MeCN/DMSO (95/5) (final concentration 5 μM). The mixture was incubated at 37° C. for 10 min and 60 min, acetonitrile containing formic acid (final concentration 0.1%) was added, and the mixture was centrifuged. The test compound (unmodified) in the supernatant was measured by high performance liquid chromatography/mass spectrometry (LC/MS) (manufactured by Waters, LC: Acquity UPLC, MS:SQ Detector or TQ Detector). The residual ratio (%) was calculated from the obtained measurement value.

[2] = Metabolic stability test in liver microsome (rat); format: in vitro ADME

CC(C)(O)CCOc1cc(-c2cnn(CC(C)(C)O)c2)c2c(c1)[C@@](O)(C(F)(F)F)c1ccccc1-2 [compound (3), (9R)-2-(3-hydroxy-3-methylbutoxy)-4-[1-(2-hydroxy-2-methylpropyl)-1H-pyrazol-4-yl]-9-(trifluoromethyl)-9H-fluoren-9-ol]
IC50 (human PDHK2 (hPDHK2)): 4.6 nM
PDHa activity (% PDHt activity) (tissue PDH activity; adipose tissue, 5 hr after oral administration): 58 ± 7 % PDHt activity
PDHa activity (% PDHt activity) (tissue PDH activity; adipose tissue, 20 hr after oral administration): 40 ± 3 % PDHt activity
PDHa activity (% PDHt activity) (tissue PDH activity; liver, 5 hr after oral administration): 51 ± 13 % PDHt activity
PDHa activity (% PDHt activity) (tissue PDH activity; liver, 20 hr after oral administration): 31 ± 12 % PDHt activity
stability in liver microsome (residual ratio %) ([1]; 10 min): 96.0%
stability in liver microsome (residual ratio %) ([1]; 60 min): 85.3%
stability in liver microsome (residual ratio %) ([2]; 10 min): 98.2%
stability in liver microsome (residual ratio %) ([2]; 60 min): 99.7%
